In publication PMC12281475, “Mediator Kinase Inhibitor Selectivity and Activity in Colorectal Cancer” (ACS Chemical Biology, 2025):

Experiments:
Assay type in all cases: biochemical
CDK20_CycH = CDK20_CycH (Homo sapiens, UniProt Q8IZL9); test: Radiometric protein kinase assay (33PanQinase), CDK20_CycH
CDK19_CycC = target: T1, CDK19_CycC (Homo sapiens, UniProt Q9BWU1); test: Radiometric protein kinase assay (33PanQinase), CDK19_CycC
T1 construct: purchased Reaction Biology

CDK20_CycT1 = CDK20_CycT1 (Homo sapiens, UniProt Q8IZL9); test: Radiometric protein kinase assay (33PanQinase), CDK20_CycT1
CDK8_CycC = target: T2, CDK8_CycC (Homo sapiens, UniProt P49336); test: Radiometric protein kinase assay (33PanQinase), CDK8_CycC
T2 construct: purchased Reaction Biology

CDK17_p35NCK = CDK17_p35NCK (Homo sapiens, UniProt Q00537); test: Radiometric protein kinase assay (33PanQinase), CDK17_p35NCK; conditions: slope of the IC50 fit
CDK2_CycA2 = target: T3, CDK2_CycA2 (Homo sapiens, UniProt P24941); test: Radiometric protein kinase assay (33PanQinase), CDK2_CycA2
T3 construct: purchased Reaction Biology

CDK1_CycA2 = target: T4, CDK1_CycA2 (Homo sapiens, UniProt P06493); test: Radiometric protein kinase assay (33PanQinase), CDK1_CycA2
T4 construct: purchased Reaction Biology

CDK5_p35NCK = target: T5, CDK5_p35NCK (Homo sapiens, UniProt Q00535); test: Radiometric protein kinase assay (33PanQinase), CDK5_p35NCK
T5 construct: purchased Reaction Biology

CDK11B 357-795_CycK = CDK11B 357-795_CycK (Homo sapiens, UniProt P21127); test: Radiometric protein kinase assay (33PanQinase), CDK11B 357-795_CycK; conditions: slope of the IC50 fit
CDK6_CycD2 = target: T6, CDK6_CycD2 (Homo sapiens, UniProt Q00534); test: Radiometric protein kinase assay (33PanQinase), CDK6_CycD2; conditions: slope of the IC50 fit
T6 construct: purchased Reaction Biology

CDK6_CycD1 = target: T7, CDK6_CycD1 (Homo sapiens, UniProt Q00534); test: Radiometric protein kinase assay (33PanQinase), CDK6_CycD1; conditions: slope of the IC50 fit
T7 construct: purchased Reaction Biology

CDK3_CycE1 = target: T8, CDK3_CycE1 (Homo sapiens, UniProt Q00526); test: Radiometric protein kinase assay (33PanQinase), CDK3_CycE1; conditions: slope of the IC50 fit
T8 construct: purchased Reaction Biology

CDK14_CycY = CDK14_CycY (Homo sapiens, UniProt O94921); test: Radiometric protein kinase assay (33PanQinase), CDK14_CycY; conditions: slope of the IC50 fit
CDK3_CycC = target: T9, CDK3_CycC (Homo sapiens, UniProt Q00526); test: Radiometric protein kinase assay (33PanQinase), CDK3_CycC
T9 construct: purchased Reaction Biology

CDK15_CycA2 = target: T10, CDK15_CycA2 (Homo sapiens, UniProt Q96Q40); test: Radiometric protein kinase assay (33PanQinase), CDK15_CycA2
T10 construct: purchased Reaction Biology

CDK9_CycT1 = target: T11, CDK9_CycT1 (Homo sapiens, UniProt P50750); test: Radiometric protein kinase assay (33PanQinase), CDK9_CycT1
T11 construct: purchased Reaction Biology

CDK5_p25NCK = target: T12, CDK5_p25NCK (Homo sapiens, UniProt Q00535); test: Radiometric protein kinase assay (33PanQinase), CDK5_p25NCK
T12 construct: purchased Reaction Biology

CDK2_CycE1 = target: T13, CDK2_CycE1 (Homo sapiens, UniProt P24941); test: Radiometric protein kinase assay (33PanQinase), CDK2_CycE1
T13 construct: purchased Reaction Biology

CDK12_CycK = target: T14, CDK12_CycK (Homo sapiens, UniProt Q9NYV4); test: Radiometric protein kinase assay (33PanQinase), CDK12_CycK
T14 construct: purchased Reaction Biology

CDK16_CycY = target: T15, CDK16_CycY (Homo sapiens, UniProt Q00536); test: Radiometric protein kinase assay (33PanQinase), CDK16_CycY; conditions: slope of the IC50 fit
T15 construct: purchased Reaction Biology

CDK9_CycK = target: T16, CDK9_CycK (Homo sapiens, UniProt P50750); test: Radiometric protein kinase assay (33PanQinase), CDK9_CycK
T16 construct: purchased Reaction Biology

CDK13_CycK = target: T17, CDK13_CycK (Homo sapiens, UniProt Q14004); test: Radiometric protein kinase assay (33PanQinase), CDK13_CycK
T17 construct: purchased Reaction Biology

CDK6_CycD3 = target: T18, CDK6_CycD3 (Homo sapiens, UniProt Q00534); test: Radiometric protein kinase assay (33PanQinase), CDK6_CycD3; conditions: slope of the IC50 fit
T18 construct: purchased Reaction Biology

CDK7_CycH_MAT1 = target: T19, CDK7_CycH_MAT1 (Homo sapiens, UniProt P50613); test: Radiometric protein kinase assay (33PanQinase), CDK7_CycH_MAT1; conditions: slope of the IC50 fit
T19 construct: purchased Reaction Biology

CDK1_CycE1 = target: T20, CDK1_CycE1 (Homo sapiens, UniProt P06493); test: Radiometric protein kinase assay (33PanQinase), CDK1_CycE1
T20 construct: purchased Reaction Biology

CDK4_CycD2 = target: T21, CDK4_CycD2 (Homo sapiens, UniProt P11802); test: Radiometric protein kinase assay (33PanQinase), CDK4_CycD2; conditions: slope of the IC50 fit
T21 construct: purchased Reaction Biology

CDK18_CycY = CDK18_CycY (Homo sapiens, UniProt Q07002); test: Radiometric protein kinase assay (33PanQinase), CDK18_CycY
CDK2_CycD1 = target: T22, CDK2_CycD1 (Homo sapiens, UniProt P24941); test: Radiometric protein kinase assay (33PanQinase), CDK2_CycD1; conditions: slope of the IC50 fit
T22 construct: purchased Reaction Biology

CDK4_CycD3 = target: T23, CDK4_CycD3 (Homo sapiens, UniProt P11802); test: Radiometric protein kinase assay (33PanQinase), CDK4_CycD3; conditions: slope of the IC50 fit
T23 construct: purchased Reaction Biology

CDK1_CycB1 = target: T24, CDK1_CycB1 (Homo sapiens, UniProt P06493); test: Radiometric protein kinase assay (33PanQinase), CDK1_CycB1
T24 construct: purchased Reaction Biology

CDK4_CycD1 = target: T25, CDK4_CycD1 (Homo sapiens, UniProt P11802); test: Radiometric protein kinase assay (33PanQinase), CDK4_CycD1; conditions: slope of the IC50 fit
T25 construct: purchased Reaction Biology

CDK10_CycQ = CDK10_CycQ (Homo sapiens, UniProt Q15131); test: Radiometric protein kinase assay (33PanQinase), CDK10_CycQ; conditions: slope of the IC50 fit
[1] = highest assay concentration 1.00E-05 M
[2] = highest assay concentration 1.00E-05 M, read-out: IC50

T1 sequence (Q9BWU1 whole entry): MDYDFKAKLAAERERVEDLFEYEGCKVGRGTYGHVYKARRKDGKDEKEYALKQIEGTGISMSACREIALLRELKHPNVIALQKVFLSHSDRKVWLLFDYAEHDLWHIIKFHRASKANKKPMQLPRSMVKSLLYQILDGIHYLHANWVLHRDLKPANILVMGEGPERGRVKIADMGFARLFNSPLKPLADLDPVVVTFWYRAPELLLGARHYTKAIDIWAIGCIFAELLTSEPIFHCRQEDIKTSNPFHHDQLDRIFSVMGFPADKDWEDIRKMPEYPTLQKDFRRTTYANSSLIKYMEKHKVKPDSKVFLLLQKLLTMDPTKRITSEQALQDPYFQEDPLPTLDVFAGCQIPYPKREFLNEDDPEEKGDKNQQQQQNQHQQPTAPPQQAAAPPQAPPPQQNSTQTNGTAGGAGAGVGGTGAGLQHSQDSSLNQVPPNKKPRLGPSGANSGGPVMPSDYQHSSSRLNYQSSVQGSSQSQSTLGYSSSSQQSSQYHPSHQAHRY
T1 sequence (P24863 whole entry partner): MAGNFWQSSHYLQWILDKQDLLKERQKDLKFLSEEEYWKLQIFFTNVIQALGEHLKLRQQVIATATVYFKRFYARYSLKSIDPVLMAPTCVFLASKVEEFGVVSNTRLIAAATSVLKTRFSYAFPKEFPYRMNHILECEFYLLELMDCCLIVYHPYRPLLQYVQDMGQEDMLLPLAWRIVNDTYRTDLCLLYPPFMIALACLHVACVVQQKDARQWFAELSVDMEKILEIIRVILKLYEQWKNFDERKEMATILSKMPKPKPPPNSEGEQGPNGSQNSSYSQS
T17 sequence (Q14004 whole entry): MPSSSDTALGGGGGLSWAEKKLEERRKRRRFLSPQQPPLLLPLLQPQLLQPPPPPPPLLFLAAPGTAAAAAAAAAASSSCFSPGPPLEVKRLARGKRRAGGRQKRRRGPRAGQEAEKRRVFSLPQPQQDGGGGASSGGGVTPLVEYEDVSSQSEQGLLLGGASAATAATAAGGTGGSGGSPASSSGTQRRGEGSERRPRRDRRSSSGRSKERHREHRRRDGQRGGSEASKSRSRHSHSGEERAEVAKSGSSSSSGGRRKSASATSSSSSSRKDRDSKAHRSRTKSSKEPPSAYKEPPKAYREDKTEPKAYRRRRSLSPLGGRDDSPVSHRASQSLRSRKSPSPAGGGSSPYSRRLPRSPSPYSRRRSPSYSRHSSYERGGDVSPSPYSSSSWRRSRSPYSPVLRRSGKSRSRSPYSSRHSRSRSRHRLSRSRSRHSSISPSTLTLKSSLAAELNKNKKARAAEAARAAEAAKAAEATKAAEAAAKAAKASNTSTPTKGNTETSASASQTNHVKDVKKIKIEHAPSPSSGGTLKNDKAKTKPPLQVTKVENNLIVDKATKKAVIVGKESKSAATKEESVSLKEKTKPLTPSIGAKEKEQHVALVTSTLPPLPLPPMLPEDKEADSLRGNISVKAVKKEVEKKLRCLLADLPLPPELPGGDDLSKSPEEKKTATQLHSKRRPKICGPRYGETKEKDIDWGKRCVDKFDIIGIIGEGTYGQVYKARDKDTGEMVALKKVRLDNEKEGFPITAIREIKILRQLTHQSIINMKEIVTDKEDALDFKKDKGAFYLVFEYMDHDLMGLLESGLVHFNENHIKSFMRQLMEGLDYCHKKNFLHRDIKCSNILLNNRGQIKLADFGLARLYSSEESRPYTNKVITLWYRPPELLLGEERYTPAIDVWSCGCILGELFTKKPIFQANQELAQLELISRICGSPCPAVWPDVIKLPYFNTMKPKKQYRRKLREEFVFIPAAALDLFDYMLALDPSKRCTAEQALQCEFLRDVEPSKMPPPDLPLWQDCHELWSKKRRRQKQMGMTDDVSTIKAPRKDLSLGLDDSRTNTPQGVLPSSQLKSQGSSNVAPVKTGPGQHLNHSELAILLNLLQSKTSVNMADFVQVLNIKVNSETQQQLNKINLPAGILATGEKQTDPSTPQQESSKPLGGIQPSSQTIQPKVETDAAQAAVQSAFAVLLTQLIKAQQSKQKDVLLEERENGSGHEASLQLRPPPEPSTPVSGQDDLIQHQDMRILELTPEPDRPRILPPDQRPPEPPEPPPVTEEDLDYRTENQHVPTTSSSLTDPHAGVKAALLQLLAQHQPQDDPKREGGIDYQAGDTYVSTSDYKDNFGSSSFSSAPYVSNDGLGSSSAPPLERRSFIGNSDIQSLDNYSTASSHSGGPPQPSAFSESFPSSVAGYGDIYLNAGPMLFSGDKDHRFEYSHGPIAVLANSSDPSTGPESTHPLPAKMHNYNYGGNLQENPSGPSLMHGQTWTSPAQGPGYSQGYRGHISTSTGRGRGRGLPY
T17 sequence (O75909 whole entry partner): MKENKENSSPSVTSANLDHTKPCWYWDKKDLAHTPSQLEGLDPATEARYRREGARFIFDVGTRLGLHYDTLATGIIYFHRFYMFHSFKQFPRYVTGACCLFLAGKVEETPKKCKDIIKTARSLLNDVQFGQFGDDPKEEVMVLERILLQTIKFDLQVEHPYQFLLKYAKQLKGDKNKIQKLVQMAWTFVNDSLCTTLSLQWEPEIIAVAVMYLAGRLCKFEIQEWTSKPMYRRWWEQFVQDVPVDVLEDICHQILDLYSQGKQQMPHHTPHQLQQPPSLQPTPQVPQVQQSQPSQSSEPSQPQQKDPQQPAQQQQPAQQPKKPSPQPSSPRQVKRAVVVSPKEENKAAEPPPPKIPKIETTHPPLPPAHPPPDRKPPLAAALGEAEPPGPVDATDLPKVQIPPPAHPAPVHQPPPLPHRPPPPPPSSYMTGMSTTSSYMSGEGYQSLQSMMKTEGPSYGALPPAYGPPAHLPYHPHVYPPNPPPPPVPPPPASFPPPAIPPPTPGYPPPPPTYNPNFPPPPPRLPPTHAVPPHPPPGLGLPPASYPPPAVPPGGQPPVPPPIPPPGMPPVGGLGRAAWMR
T2 sequence (P49336 whole entry): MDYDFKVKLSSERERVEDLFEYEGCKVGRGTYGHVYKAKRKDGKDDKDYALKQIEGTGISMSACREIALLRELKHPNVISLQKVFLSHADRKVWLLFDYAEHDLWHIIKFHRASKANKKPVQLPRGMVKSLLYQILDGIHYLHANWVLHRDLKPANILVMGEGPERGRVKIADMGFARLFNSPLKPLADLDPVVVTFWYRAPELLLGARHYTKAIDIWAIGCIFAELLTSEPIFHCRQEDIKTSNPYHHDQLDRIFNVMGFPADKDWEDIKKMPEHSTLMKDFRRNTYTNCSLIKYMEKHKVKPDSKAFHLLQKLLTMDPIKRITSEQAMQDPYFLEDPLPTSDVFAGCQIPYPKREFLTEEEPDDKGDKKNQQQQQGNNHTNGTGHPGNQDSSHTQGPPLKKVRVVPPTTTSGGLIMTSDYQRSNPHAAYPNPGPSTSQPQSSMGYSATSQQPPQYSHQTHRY
T2 sequence (P24863 whole entry partner): as the sequence (P24863 whole entry partner) above
CDK20_CycH, sequence (Q8IZL9 whole entry): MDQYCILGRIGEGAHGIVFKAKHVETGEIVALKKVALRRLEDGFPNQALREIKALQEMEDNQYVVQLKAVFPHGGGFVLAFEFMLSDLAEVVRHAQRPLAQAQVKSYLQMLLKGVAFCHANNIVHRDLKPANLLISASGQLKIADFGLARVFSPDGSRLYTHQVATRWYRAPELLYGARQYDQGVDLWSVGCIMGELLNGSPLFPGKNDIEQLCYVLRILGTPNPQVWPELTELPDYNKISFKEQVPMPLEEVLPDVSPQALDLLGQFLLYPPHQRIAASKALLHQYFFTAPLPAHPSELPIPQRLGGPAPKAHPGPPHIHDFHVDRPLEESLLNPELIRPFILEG
CDK20_CycT1, sequence (Q8IZL9 whole entry): as above
T12 sequence (Q00535 whole entry): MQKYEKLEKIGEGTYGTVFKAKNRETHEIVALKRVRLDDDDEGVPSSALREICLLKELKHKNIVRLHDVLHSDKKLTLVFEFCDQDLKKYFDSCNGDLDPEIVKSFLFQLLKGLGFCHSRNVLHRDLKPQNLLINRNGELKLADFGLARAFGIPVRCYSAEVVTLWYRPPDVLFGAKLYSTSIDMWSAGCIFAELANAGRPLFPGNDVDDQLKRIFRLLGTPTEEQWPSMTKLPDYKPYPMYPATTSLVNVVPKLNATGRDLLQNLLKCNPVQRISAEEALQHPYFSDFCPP
T12 sequence (Q15078 99-307 partner limits assumed): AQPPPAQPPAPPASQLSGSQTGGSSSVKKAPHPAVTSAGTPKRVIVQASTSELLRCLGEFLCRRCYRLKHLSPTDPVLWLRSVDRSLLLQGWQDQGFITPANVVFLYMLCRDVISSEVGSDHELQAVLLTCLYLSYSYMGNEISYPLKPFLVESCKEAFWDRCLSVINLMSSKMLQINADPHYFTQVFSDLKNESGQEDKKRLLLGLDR
T5 sequence (Q00535 whole entry): as the sequence (Q00535 whole entry) above
T5 sequence (Q15078 whole entry partner): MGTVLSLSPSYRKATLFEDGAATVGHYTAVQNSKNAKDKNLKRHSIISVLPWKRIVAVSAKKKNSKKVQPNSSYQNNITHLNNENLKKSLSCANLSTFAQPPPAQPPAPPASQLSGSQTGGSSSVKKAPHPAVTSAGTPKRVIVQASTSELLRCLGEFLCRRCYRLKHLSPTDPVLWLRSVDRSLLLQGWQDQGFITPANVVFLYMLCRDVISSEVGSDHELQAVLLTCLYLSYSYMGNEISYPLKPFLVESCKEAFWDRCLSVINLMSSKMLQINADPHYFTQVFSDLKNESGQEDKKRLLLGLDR

For `Cc1c(Br)c(Br)c2c3c1nc(N1CCNCC1)n3CCC2.Cl` [SEL120-34A, reference compound], the IC50 (CDK20_CycH; [1]) was 1.13 µM, the “Hill Slope” value (CDK20_CycH; slope of the IC50 fit) was -0.52 and the IC50 (CDK19_CycC; [2]) was 0.437 µM. The “Hill Slope” value (CDK19_CycC; slope of the IC50 fit) was -0.83, the IC50 (CDK20_CycT1; [1]) was 1.12 µM and the “Hill Slope” value (CDK20_CycT1; slope of the IC50 fit) was -0.7. For the same molecule, the IC50 (CDK8_CycC; [2]) was 0.193 µM, the “Hill Slope” value (CDK8_CycC; slope of the IC50 fit) was -0.81 and the “Hill Slope” value (CDK17_p35NCK) was -0.56. For the same molecule, the IC50 (CDK2_CycA2; [2]) was 2.22 µM, the “Hill Slope” value (CDK2_CycA2; slope of the IC50 fit) was -1.14 and the IC50 (CDK1_CycA2; [2]) was 7.1 µM. The “Hill Slope” value (CDK1_CycA2; slope of the IC50 fit) was -0.95, the IC50 (CDK5_p35NCK; [1]) was 4.55 µM and the “Hill Slope” value (CDK5_p35NCK; slope of the IC50 fit) was -0.92. The “Hill Slope” value (CDK11B 357-795_CycK) was -0.45, the “Hill Slope” value (CDK6_CycD2) was -0.78 and the “Hill Slope” value (CDK6_CycD1) was -0.06. For the same molecule, the “Hill Slope” value (CDK3_CycE1) was -0.48, the “Hill Slope” value (CDK14_CycY) was -0.83 and the IC50 (CDK3_CycC; [2]) was 4.82 µM. For the same molecule, the “Hill Slope” value (CDK3_CycC; slope of the IC50 fit) was -0.87, the IC50 (CDK15_CycA2; [1]) was 7.49 µM and the “Hill Slope” value (CDK15_CycA2; slope of the IC50 fit) was -0.86. The IC50 (CDK9_CycT1; [1]) was 0.957 µM, the “Hill Slope” value (CDK9_CycT1; slope of the IC50 fit) was -1.23 and the IC50 (CDK5_p25NCK; [1]) was 7.39 µM. The “Hill Slope” value (CDK5_p25NCK; slope of the IC50 fit) was -0.75, the IC50 (CDK2_CycE1; [2]) was 2.7 µM and the “Hill Slope” value (CDK2_CycE1; slope of the IC50 fit) was -1.13. The IC50 (CDK12_CycK; [1]) was 0.702 µM, the “Hill Slope” value (CDK12_CycK; slope of the IC50 fit) was -0.91 and the “Hill Slope” value (CDK16_CycY) was -0.52. The IC50 (CDK9_CycK; [1]) was 0.597 µM, the “Hill Slope” value (CDK9_CycK; slope of the IC50 fit) was -1.14 and the IC50 (CDK13_CycK; [2]) was 0.292 µM. The “Hill Slope” value (CDK13_CycK; slope of the IC50 fit) was -0.51, the “Hill Slope” value (CDK6_CycD3) was -0.38 and the “Hill Slope” value (CDK7_CycH_MAT1) was -0.9. The IC50 (CDK1_CycE1; [2]) was 5 µM, the “Hill Slope” value (CDK1_CycE1; slope of the IC50 fit) was -1.01 and the “Hill Slope” value (CDK4_CycD2) was -0.75. The IC50 (CDK18_CycY; [1]) was 7.84 µM, the “Hill Slope” value (CDK18_CycY; slope of the IC50 fit) was -0.81 and the “Hill Slope” value (CDK2_CycD1) was -0.7. The “Hill Slope” value (CDK4_CycD3) was -0.78, the IC50 (CDK1_CycB1; [1]) was 7.62 µM and the “Hill Slope” value (CDK1_CycB1; slope of the IC50 fit) was -0.55. For the same molecule, the “Hill Slope” value (CDK4_CycD1) was -0.69 and the “Hill Slope” value (CDK10_CycQ) was -0.83.
